According to US20130324617A1, “CROWN-LIKE STRUCTURES AS A BIOMARKER FOR CANCER RISK AND CANCER PROGNOSIS” (MEMORIAL SLOAN-KETTERING CANCER CENTER, priority 2011, published 2013):

Key:
[1] = test system: THP-1 cells; test: Pro-inflammatory mediators (TNF-α, IL-1β, Cox-2, PGE2) in saturated fatty acid-treated THP-1 cells; assay type: cell-based, human; conditions: for induction of TNF-α in THP-1 cells: 0, 2.5, 5, 10 μmol/L saturated fatty acid, 24 hours, real-time PCR
Procedure: (§1) THP-1 cells (ATCC) were maintained in RPMI-1640 medium (Invitrogen) supplemented with 10% FBS. These cells were treated with phorbol 12-myristate 13-acetate (10 ng/mL) overnight to differentiate them into macrophages. Human monocytes (Astarte Biologics) were activated with IFNγ (15 ng/mL) and lipopolysaccharide (15 ng/mL) in RPMI-1640 medium for 4 days. THP-1 cells and blood monocyte-derived macrophages were then treated with saturated fatty acids (Nu-CheK Prep) as indicated. To prepare conditioned medium (CM), the cells were treated with saturated fatty acids for 12 hours in medium comprised of RPMI-1640 and preadipocyte medium (ScienCellTMResearch Laboratories) at a 1:1 ratio. Following treatment with fatty acids, the medium was removed and cells were washed thrice with PBS to remove fatty acids. Subsequently, fresh medium was added for 24 hours. This CM was then collected and centrifuged at 4,000 rpm for 30 minutes to remove cell debris. CM was used to treat preadipocytes.
(§2) Lysates were prepared by treating cells with lysis buffer, sonicating for 20 seconds on ice and centrifuging at 10,000×g for 10 minutes to remove particulate material. The protein concentration of the supernatant was measured by the method of Lowry et al. (Lowry 1951). SDS-PAGE was done under reducing conditions on 10% polyacrylamide gels. The resolved proteins were transferred onto nitrocellulose sheets and incubated with primary antisera. Antibodies to phospho-p65, p65, histone H3, Cox-2 and β-actin were used (Santa Cruz Biotechnology). Secondary antibody to IgG conjugated to horseradish peroxidase was used. The blot was probed with the ECL Western blot detection system.
(§3) Total RNA was isolated using the RNeasy mini kit (Qiagen). For tissue analyses, poly A RNA was prepared with an Oligotex mRNA mini kit (Qiagen). Poly A RNA was reversed transcribed using murine leukemia virus reverse transcriptase and oligo (dT)16 primer. The resulting cDNA was then used for amplification using primers listed Table 1. GAPDH and β-actin were used as endogenous normalization controls for tissue and cell culture analyses, respectively. Real-time PCR was performed using 2×SYBR green PCR master mix on a 7500 Real-time PCR system (Applied Biosystems). Relative fold induction was determined using the ddCT (relative quantification) analysis protocol.
LC/MS/MS analyses were performed using a Tandem Quadrupole Mass Spectrometer (Agilent) equipped with an Agilent 1200 binary pump HPLC system using a modified version of the method of Yang 2006. PGs were chromatographically separated using a Gemini 3-μm C6-phenyl 4.6×100 mm analytical column (Phenomenex). The mobile phase consisted of 0.1% formic acid in water (mobile phase A) and 0.1% formic acid in acetonitrile (mobile phase B). The chromatographic baseline resolution for the PGs of interest was achieved using a linear gradient that went from 20% to 40% mobile phase B for 12 minutes and then from 40% to 70% for 8 minutes. This was then increased to 90% mobile phase B over the next 2 minutes and kept at this level for an additional 3 minutes. The flow rate was 0.8 mL/min with a column temperature of 40° C. The mass spectrometer was operated in negative electrospray ionization mode with capillary voltage of 2.9 kV, a cone gas flow rate of […] and a shear gas flow rate of 12 mL/minute at 350° C. PGs were detected and quantified using multiple reaction mode monitoring of the transitions m/z 351 to 271 for PGE2 and m/z 355 to 275 for PGE2-d4. The results are expressed as nanograms of PGE2 per mg of protein. For measurements of PGE2 in cell culture media, EIA kits were used (Cayman Chemicals).
TNF-α and IL-1β levels were quantified in cell culture media using EIA kits (R & D systems).
Experiments were carried out in vitro to determine if saturated fatty acids stimulated the production of pro-inflammatory molecules by macrophages leading, in turn, to elevated aromatase expression in preadipocytes.

[2] = test system: aromatase in human preadipocytes; test: Induction of aromatase mRNA and activity in preadipocytes by macrophage-derived conditioned medium; assay type: cell-based; conditions: for aromatase mRNA and activity in human preadipocytes: preadipocytes treated 24 hours
Procedure: Human visceral preadipocytes (ScienCell™) were grown in preadipocyte medium containing 10% FBS.
as §1, §3
To determine aromatase activity, microsomes were prepared from cell lysates and tissues by differential centrifugation using established methods (Subbaramaiah 2006). Aromatase activity was quantified by measurement of the tritiated water released from 1β-[^3H]-androstenedione (Subbaramaiah 2008). The reaction was also performed in the presence of letrozole, a specific aromatase inhibitor, as a specificity control and without NADPH as a background control. Aromatase activity was normalized to protein concentration.
Further, to investigate whether conditioned medium from saturated fatty acid-treated macrophages induced aromatase in preadipocytes, THP-1 cells or human blood monocyte-derived macrophages were treated with 0, 2.5, 5 or 10 μmol/L LA, MA, PA or SA as described above to generate CM (n=6). This CM was used to treat preadipocytes for 24 hours. Aromatase mRNA and activity levels were determined. Treatment with CM derived from either saturated fatty acid-treated THP-1 cells or human blood monocyte-derived macrophages induced aromatase mRNA and activity in human preadipocytes. Neutralizing either TNF-α or IL-1β by incubating the CM from SA-treated cells with neutralizing antibodies to TNF-α, IL-1β or control IgG overnight at 4° C. attenuated CM-mediated induction of aromatase in preadipocytes.
Next, THP-1 cells were transfected as indicated with control siRNA or TNF-α siRNA, IL-1β siRNA or Cox-2 siRNA for 36 hours. Cells were then treated with vehicle (control) or 10 μmol/L SA as described above. The levels of TNFα, IL-1β and PGE2 were measured by enzyme immunoassay in the CM. Cox-2 protein abundance was determined by immunoblotting of whole cell lysates using β-actin was used as a loading control. Preadipocytes were treated with THP-1 cell-derived CM for 24 hours prior to measurements of aromatase mRNA and activity. […] Following treatment, the medium was removed and cells were washed. Subsequently, fresh medium was added for 24 hours to generate CM. PGE2 production was measured in CM. Preadipocytes were treated with THP-1 cell-derived CM for 24 hours prior to measurements of aromatase mRNA and activity. […]

[3] = test system: NF-κB; test: NF-κB-luciferase reporter assay in THP-1 cells; assay type: cell-based, human; conditions: for NF-κB-luciferase activity in THP-1 cells: 10 μmol/L fatty acid, 24 hours
Procedure: NF-κB-luciferase (Panomics) and pSVβgal (Promega) were transfected into THP-1 cells using the Amaxa system. After 24 hours of incubation, the medium was replaced with basal medium. The activities of luciferase (BD Biosciences) and β-galactosidase were measured in cellular extracts. For siRNA transfections, THP-1 cells were plated at 60% confluence and transfected with non-targeting siRNA or siRNA targeting TNF-α, IL-1β, Cox-2 and p65 using Dharmafect 4 for 36 hours. Subsequently, the cells were treated with vehicle or saturated fatty acids.
To investigate the potential role of the transcription factor NF-κB in saturated fatty acid-mediated induction of TNF-α, IL-1β and Cox-2 in macrophages, transient transfection assays were performed in saturated fatty acid-treated THP-1 cells with an NF-κB-luciferase reporter construct and pSV-βgal constructs.
The effects of BAY11-7082, a pharmacological inhibitor of NF-κB, were evaluated. THP-1 cells were transiently transfected with NF-κB-luciferase and pSV-βgal constructs and cells were subsequently treated with vehicle, 10 μmol/L SA or SA plus 0, 5 or 10 μmol/L of BAY11-7082 (InvivoGen) for 12 hours. NF-κB luciferase activity was normalized to β-galactosidase activity. Additionally, THP-1 cells were treated with vehicle (control), 10 μmol/L SA or SA plus 10 μmol/L BAY11-7082 for 24 hours. Levels of TNF-α protein, IL-1β protein and PGE2 in the CM were determined by enzyme immunoassay. Preadipocytes were treated with THP-1 cell-derived CM for 24 hours prior to measurements of aromatase mRNA and activity.

[4] = test system: p65; test: Immunoblotting of phospho-p65 and p65 in THP-1 cells; assay type: cell-based, human; conditions: 30 minutes; for phosphorylation of p65: THP-1 cells, 0, 2.5, 5 or 10 μmol/L fatty acid
Procedure: as §2
The abundance of phospho-p65 was determined by immunoblotting in cytosolic and nuclear preparations of cells treated with vehicle (control) or 10 μmol/L SA for 30 minutes. β-actin and histone H3 were used as cytosolic and nuclear markers, respectively.

[5] = test system: NF-κB binding sites; test: Electrophoretic mobility shift assay of nuclear protein from THP-1 cells; assay type: cell-based, human; conditions: THP-1 cells, 0, 2.5, 5 or 10 μmol/L SA, 1 hour; EMSA
Procedure: Nuclear extracts were prepared from mouse mammary glands using an EMSA kit (Promega). For binding studies, oligonucleotides containing NF-κB sites (Active Motif) were used. The complementary oligonucleotides were annealed in 20 mmol/L Tris (pH 7.6), 50 mmol/L NaCl, 10 mmol/L MgCl2, and 1 mmol/L dithiothreitol. The annealed oligonucleotide was phosphorylated at the 5′ end with [γ-^32P]ATP and T4 polynucleotide kinase. The binding reaction was performed by incubating 5 μg of nuclear protein in 20 mmol/L HEPES (pH 7.9), 10% glycerol, 300 μg of bovine serum albumin, and 1 μg of poly(dI·dC) in a final volume of 10 μL for 10 minutes at 25° C. The labeled oligonucleotides were added to the reaction mixture and allowed to incubate for an additional 20 minutes at 25° C. The samples were electrophoresed on a 4% nondenaturing polyacrylamide gel. The gel was then dried and subjected to autoradiography at −80° C.
DNA-protein binding complexes to NF-κB binding sites were examined by electrophoretic mobility shift assays (EMSA). Nuclear protein was prepared from THP-1 cells treated with 0, 2.5, 5 or 10 μmol/L of SA for 1 hour. In another experiment, nuclear protein was prepared from THP-1 cells treated with vehicle or 10 μmol/L SA for 1 hour, and the nuclear protein was incubated with normal IgG or different concentrations of antibodies to p65. […]

[6] = 10 μmol/L SA plus 10 μmol/L BAY11-7082, 24 hours, enzyme immunoassay
[7] = CM from THP-1 cells treated with 0, 2.5, 5 or 10 μmol/L fatty acid
[8] = CM from human blood monocyte-derived macrophages treated with 0, 2.5, 5 or 10 μmol/L fatty acid

ability of macrophage-derived CM to induce aromatase expression and activity ([2]; following NF-κB inhibition of THP-1 cells with BAY11-7082, preadipocytes treated with CM 24 hours)	aromatase mRNA and activity in human preadipocytes [2, 7]	aromatase mRNA and activity in human preadipocytes [2, 8]	SMILES	production of increased amounts of IL-1β in CM [1, 6]	production of increased amounts of PGE2 in CM [1, 6]	production of increased amounts of TNF-α in CM [1, 6]	SA-mediated activation of NF-κB (NF-κB luciferase activity) ([3]; 10 μmol/L SA plus 0, 5 or 10 μmol/L BAY11-7082, 12 hours)	induction of TNF-α in THP-1 cells [1]	NF-κB-luciferase activity in THP-1 cells [3]	phosphorylation of p65 [4]	binding of nuclear protein to a 32P-labeled NF-κB consensus sequence [5]	translocation of p65 from cytosol to nucleus ([4]; THP-1 cells, 10 μmol/L SA)
suppressed	–	–	Cc1ccc(S(=O)(=O)/C=C/C#N)cc1 [BAY11-7082]	suppressed	suppressed	suppressed	suppressed	–	–	–	–	–
–	induced	induced	CCCCCCCCCCCC(=O)O [LA, lauric acid]	–	–	–	–	dose-dependent induction	–	–	–	–
–	induced	induced	CCCCCCCCCCCCCC(=O)O [MA, myristic acid]	–	–	–	–	dose-dependent induction	–	–	–	–
–	induced	induced	CCCCCCCCCCCCCCCC(=O)O [PA, palmitic acid]	–	–	–	–	dose-dependent induction	induced	stimulated	–	–
–	induced	induced	CCCCCCCCCCCCCCCCCC(=O)O [SA, stearic acid]	–	–	–	–	dose-dependent induction	induced	stimulated	stimulated	stimulated
